In this assay the target is T1, mTLR9 (Mus musculus, UniProt Q9EQU3).
T1 construct: Splenocytes isolated from male C57/BL6 mice; from tissue; host or cells: splenocytes from the spleen of male C57BL/6 mice
T1 sequence (Q9EQU3 26-1032): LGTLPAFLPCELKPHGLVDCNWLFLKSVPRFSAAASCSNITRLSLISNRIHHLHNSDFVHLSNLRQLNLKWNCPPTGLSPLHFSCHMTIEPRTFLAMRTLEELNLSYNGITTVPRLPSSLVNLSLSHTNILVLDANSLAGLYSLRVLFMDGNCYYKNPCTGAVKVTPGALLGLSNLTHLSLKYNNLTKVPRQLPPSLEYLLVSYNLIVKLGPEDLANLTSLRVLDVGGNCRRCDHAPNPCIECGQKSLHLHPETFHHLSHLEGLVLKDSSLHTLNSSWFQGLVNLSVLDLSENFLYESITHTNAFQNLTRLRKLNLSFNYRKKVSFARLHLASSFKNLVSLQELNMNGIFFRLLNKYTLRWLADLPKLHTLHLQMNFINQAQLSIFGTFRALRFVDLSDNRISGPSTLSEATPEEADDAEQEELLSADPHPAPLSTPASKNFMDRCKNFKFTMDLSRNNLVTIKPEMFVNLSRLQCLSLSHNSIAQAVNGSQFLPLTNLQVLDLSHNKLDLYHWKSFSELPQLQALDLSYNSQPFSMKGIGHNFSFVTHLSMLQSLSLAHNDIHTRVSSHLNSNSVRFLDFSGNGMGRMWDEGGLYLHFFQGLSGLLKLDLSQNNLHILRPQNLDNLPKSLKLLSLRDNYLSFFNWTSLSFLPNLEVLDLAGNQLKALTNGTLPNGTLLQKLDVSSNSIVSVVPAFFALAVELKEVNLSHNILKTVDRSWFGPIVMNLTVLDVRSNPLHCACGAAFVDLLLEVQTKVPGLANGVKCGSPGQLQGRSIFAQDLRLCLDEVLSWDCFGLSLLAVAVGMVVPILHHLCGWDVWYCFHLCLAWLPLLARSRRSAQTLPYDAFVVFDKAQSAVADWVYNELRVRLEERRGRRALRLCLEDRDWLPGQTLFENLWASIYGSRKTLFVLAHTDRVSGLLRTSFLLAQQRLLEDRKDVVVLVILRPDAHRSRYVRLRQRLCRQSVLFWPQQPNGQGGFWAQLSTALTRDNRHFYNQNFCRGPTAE
The assay can be described thus: mTLR9 antagonism (IL-6 and TNF-α release assay) in mouse splenocytes, CpG ODN-2006 stimulated. The format is cell-based. The settings on record: 1 μM, mouse splenocytes. In outline: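 C57BL6 mouse splenocytes (0.2 million/well) pre-incubated 30 min at 37 °C with compounds (30 μM–1 nM, 0.3% DMSO), then stimulated with 1 μg/ml CpG ODN-2006 overnight at 37 °C/5% CO2. IL-6 and TNF-α in supernatant measured by ELISA; IC50 from % inhibition curves.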

The mark [1] stands for this setting: IL-6 release, read-out: mTLR9 inhibitory activity (% at 1 μM), IL-6.
Setting [2] is: TNF-α release, read-out: mTLR9 inhibitory activity (% at 1 μM), TNF-α.

Results on six compounds are retold here after patent publication US9643967B2, “Pyrrolo[3,2-c]pyridine derivatives as TLR inhibitors” (TAKEDA PHARMACEUTICAL COMPANY LIMITED, priority 2013, dated 2017).

Where two headings read alike, the source gives them in different places.

For the compound `Cc1cc2c(cc(CCN3CCOCC3)n2C)c(-c2ccc(C3CCN(C(C)C)CC3)cc2)n1` [Example B31, 4-[2-[4-[4-(1-isopropyl-4-piperidyl)phenyl]-1,6-dimethyl-pyrrolo[3,2-c]pyridin-2-yl]ethyl]morpholine], the inhibition at 1 µM was 100% under setting [1] and 92% under setting [2]. As to `CC(C)N1CCN(c2ccc(-c3nccc4[nH]c(CCCN5CCOCC5)cc34)cc2)CC1` [Example C1, 4-[3-[4-[4-(4-isopropylpiperazin-1-yl)phenyl]-1H-pyrrolo[3,2-c]pyridin-2-yl]propyl]morpholine], under setting [2], the inhibition at 1 µM is 100%. On to `CN1CCN(c2ccc(-c3nccc4[nH]c(CCCN5CCOCC5)cc34)cc2)CC1` [Example C2, 4-[3-[4-[4-(4-methylpiperazin-1-yl)phenyl]-1H-pyrrolo[3,2-c]pyridin-2-yl]propyl]morpholine], for which the inhibition at 1 µM under setting [2] stood at 100%.

For `Cc1cc2[nH]c(CCCN3CCOCC3)cc2c(-c2ccc(N3CCN(C(C)C)CC3)cc2)n1` [Example C3, 4-[3-[4-[4-(4-isopropylpiperazin-1-yl)phenyl]-6-methyl-1H-pyrrolo[3,2-c]pyridin-2-yl]propyl]morpholine], the inhibition at 1 µM by setting is: under setting [1], 100%; under setting [2], 100%. Consider `Cc1cc2[nH]c(CCCN3CCCCC3)cc2c(-c2ccc(N3CCN(C(C)C)CC3)cc2)n1` [Example C5, 4-[4-(4-isopropylpiperazin-1-yl)phenyl]-6-methyl-2-[3-(1-piperidyl)propyl]-1H-pyrrolo[3,2-c]pyridine], for which the inhibition at 1 µM by setting is: under setting [1], 94%; under setting [2], 100%. The like results for `Cc1cc2c(cc(CCCN3CCOCC3)n2C)c(-c2ccc(N3CCN(C(C)C)CC3)cc2)n1` [Example C6, 4-[3-[4-[4-(4-isopropylpiperazin-1-yl)phenyl]-1,6-dimethyl-pyrrolo[3,2-c]pyridin-2-yl]propyl]morpholine] were, in that order, 100% and 100%.
